Data reported in PMC5947712, “High‐Throughput Kinetic Analysis for Target‐Directed Covalent Ligand Discovery” (Angewandte Chemie (International Ed. in English), 2018).

Molecular target: Cdk1‐cyclin A2 (Homo sapiens, UniProt P06493)
Experiment: In vitro kinase activity after 24 h incubation of active Cdk1:cyclin A2 with acrylamides
Format: biochemical
Settings: for inhibition at 500 µM: 0.5 mM, 24 hours incubation, n=3, read-out: % inhibition ± SEM Cdk1
Description: Figure 6 a) Sequence alignment of Cdk family. Cys177 is highlighted in yellow. b) Published selectivity profiles of selected Cdk2 inhibitors.29 c) Active Cdk1/Cdk2:cyclin A2 was incubated with acrylamides 1 and 2 (0.5 mM) for 24 hours and then their in vitro kinase activity was measured (n=3). […]
Tables! 2R6.! Molecular! replacement! was! conducted! on! all! data! sets! using!Phaser[14]/MOLREP[15]!against! apoRCdk2! (PDB:!
4EK3)!and!the! model! was! iteratively! refined! using! Phenix.Refine[16]!with! manual! modelling! and! adjustments! carried! out! in!
COOT[17].! Descriptions! of! the! ligands! and! links! were! generated! with! JLigand[18]!and! refined! with! Refmac[19].! Electron! density! […]
Cdk2! (1! mg)! was! sequentially! incubated! with! aliquots! of! CAK1! (3!×!0.05! mg)! at! r.t.! for! 4! hours! at! a! time! in! 1.5! mL! of! a! 30! mM!
Tris/HCl! buffer! (pH! 7.5)! containing! 10! mM! MgCl2,! 10! mM! ATP! and! 3! mM! DTT.! As! CAK1! appeared! to! become! rapidly! inactiR
vated! in! the! presence! of! pCdk2,! three! repetitions! were! required! to! drive! the! reaction! to! completion.! The! resulting! solution! was!
incubated!with!50!µL!of!glutathioneRSepharose!beads!and!filtered!to!remove!remaining!CAK1.!
Phosphorylation! of! T160! results! in! increased! mobility! of! Cdk2! during! gel! electrophoresis! and! the! reaction! was! monitored! by!
SDSRpage.! The! site! of! modification! was! subsequently! verified! by! western! blot! using! an! antiRT160! antibody! (Cell! Signalling!
2561)!and!complete!monoRmodification!was!confirmed!by!intact!protein!mass!spectrometry.! […]
initiated!by!addition!of!0.5!mM!ATP!and!0.24!mM!substrate!peptide!([…])!and!the!absorbance!at!340!nm!was!moniR […]
plate! reader! […]
was!measured!from!the!gradient!during!the!linear!phase!of!product!accumulation.!! […]
ments,! the! wavelength! was! adjusted! to! 230! nm! and! elipticity! was! measured! at! […]
repeats!of!10!s!integrations!per!temperature.!The!meltRtemperature!(Tm)!was!determined!using!Prism!6.0!by!fitting!a!sigmoidal! […]
The! cell! lysates! were!diluted! to! […] RIPA! lysis! buffer,! as! quantified! by! the! […]

Chain of Cdk1‐cyclin A2 (P06493 whole entry): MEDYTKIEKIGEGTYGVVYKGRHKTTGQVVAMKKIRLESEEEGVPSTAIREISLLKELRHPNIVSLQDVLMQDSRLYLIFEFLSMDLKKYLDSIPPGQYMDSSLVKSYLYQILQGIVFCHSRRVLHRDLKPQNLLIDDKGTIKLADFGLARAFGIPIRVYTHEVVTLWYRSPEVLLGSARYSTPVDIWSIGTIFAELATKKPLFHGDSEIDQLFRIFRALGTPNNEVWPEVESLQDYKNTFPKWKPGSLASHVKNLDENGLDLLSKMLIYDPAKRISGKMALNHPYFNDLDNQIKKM
Chain of Cdk1‐cyclin A2 (P20248 whole entry partner): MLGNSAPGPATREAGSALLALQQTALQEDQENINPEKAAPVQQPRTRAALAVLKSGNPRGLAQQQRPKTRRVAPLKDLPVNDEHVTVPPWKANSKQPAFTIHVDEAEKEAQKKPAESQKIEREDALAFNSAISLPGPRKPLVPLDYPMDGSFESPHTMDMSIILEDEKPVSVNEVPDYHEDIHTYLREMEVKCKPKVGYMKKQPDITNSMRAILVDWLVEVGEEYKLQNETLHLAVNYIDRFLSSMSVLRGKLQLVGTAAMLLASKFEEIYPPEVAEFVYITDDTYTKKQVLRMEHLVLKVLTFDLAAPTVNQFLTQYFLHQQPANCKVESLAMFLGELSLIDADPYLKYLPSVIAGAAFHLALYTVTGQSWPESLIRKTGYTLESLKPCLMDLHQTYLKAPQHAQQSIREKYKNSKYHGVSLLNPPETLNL

Row | inhibition at 500 µM | inhibition of Cdk1‐cyclin A2 in vitro (in words) (prolonged exposure (24 hours)) | Compound
1 | 2 ± 10% | failed to inhibit | C=CC(=O)N1CCN(C(=O)OC(C)(C)C)c2ccccc21 [Acrylamide 1]
2 | -2 ± 8% | – | C=CC(=O)N1CCN(C(=O)OC)c2ccccc21 [Acrylamide 2]
